Measured values reported in patent US7772263B2, “Compounds for the treatment of inflammatory disorders” (Schering Corporation, priority 2006, dated 2010).

molecular target: T1, purified catalytic domain of recombinant human TACE (rhTACEc) (Homo sapiens, UniProt P78536, N452Q/S266A); test: TACE kinetic assay, cleavage of internally quenched fluorescent peptide substrate SPDL-3; type: biochemical; settings: TACE inhibition, Table 1001; read-out: Ki Rating
T1 construct: rhTACEc, Residue 215 to 477 with two mutation (S266A and N4520) and a 6×His tail; 6xHis (C); made in house; host or cells: baculovirus/Hi5 insect cells
T1 sequence (P78536 215-477 S266A/N452Q limits assumed): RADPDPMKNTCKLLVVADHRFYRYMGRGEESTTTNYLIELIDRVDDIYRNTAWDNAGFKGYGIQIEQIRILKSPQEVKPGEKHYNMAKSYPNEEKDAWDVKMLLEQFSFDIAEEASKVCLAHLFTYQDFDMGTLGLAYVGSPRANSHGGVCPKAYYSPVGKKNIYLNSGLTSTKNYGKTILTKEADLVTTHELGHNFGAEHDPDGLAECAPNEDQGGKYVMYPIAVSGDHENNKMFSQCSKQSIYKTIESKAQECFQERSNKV

Compound `COc1ccc2c(c1)C(=O)N(C[C@@]1(C#Cc3cncc(C)c3)NC(=O)NC1=O)C2` [Compound 1005] has a Ki of less than 5 nM.

same assay, conditions: TACE; class letters A-D; read-out: Ki Rating

`COc1ccc2c(c1)C(=O)N(C[C@@]1(C#Cc3cncc(Cl)c3)NC(=O)NC1=O)C2` [Compound 1006] and `COc1ccc2c(c1)C(=O)N(C[C@@]1(C#Cc3cncc(O)c3)NC(=O)NC1=O)C2` [Compound 1063] cannot be ordered by Ki: less than 5 nM for the first, less than 5 nM for the second.

`COc1ccc2c(c1)C(=O)N(C[C@@]1(C#Cc3ccc(F)cc3C)NC(=O)NC1=O)C2` [Compound 1007] and `COc1ccc2c(c1)C(=O)N(C[C@@]1(C#Cc3ccccc3C)NC(=O)NC1=O)C2` [Compound 1062] cannot be ordered by Ki: less than 5 nM for the first, less than 5 nM for the second.

`COc1ccc2c(c1)C(=O)N(C[C@@]1(C#Cc3ccc4nccnc4c3)NC(=O)NC1=O)C2` [Compound 1008] and `COc1ccc2c(c1)C(=O)N(C[C@@]1(C#Cc3ccc4[nH]cnc4c3)NC(=O)NC1=O)C2` [Compound 1012] cannot be ordered by Ki: less than 5 nM for the first, less than 5 nM for the second.

`COc1ccc2c(c1)C(=O)N(C[C@@]1(C#Cc3ccc4nc(N)[nH]c4c3)NC(=O)NC1=O)C2` [Compound 1009] and `COc1ccc2c(c1)C(=O)N(C[C@@]1(C#Cc3ccc4nc(C)[nH]c4c3)NC(=O)NC1=O)C2` [Compound 1011] cannot be ordered by Ki: less than 5 nM for the first, less than 5 nM for the second.

`COc1ccc2c(c1)C(=O)N(C[C@@]1(C#Cc3ccc4c(c3)COC4=O)NC(=O)NC1=O)C2` [Compound 1010] and `COc1ccc2c(c1)C(=O)N(C[C@@]1(C#Cc3ccc4c(c3)CCO4)NC(=O)NC1=O)C2` [Compound 1047] cannot be ordered by Ki: less than 5 nM for the first, less than 5 nM for the second.

`COc1ccc2c(c1)C(=O)N(C[C@@]1(C#Cc3cnc4[nH]c(=O)[nH]c4c3)NC(=O)NC1=O)C2` [Compound 1013] and `COc1ccc2c(c1)C(=O)N(C[C@@]1(C#Cc3ccc4[nH]c(=O)[nH]c4c3)NC(=O)NC1=O)C2` [Compound 1069] cannot be ordered by Ki: less than 5 nM for the first, less than 5 nM for the second.

`COc1ccc2c(c1)C(=O)N(C[C@@]1(C#Cc3cccc4[nH]ncc34)NC(=O)NC1=O)C2` [Compound 1014] and `COc1ccc2c(c1)C(=O)N(C[C@@]1(C#Cc3cccc4cn[nH]c34)NC(=O)NC1=O)C2` [Compound 1015] cannot be ordered by Ki: less than 5 nM for the first, less than 5 nM for the second.

`COc1ccc2c(c1)C(=O)N(C[C@@]1(C#Cc3ccc4[nH]c(=O)sc4c3)NC(=O)NC1=O)C2` [Compound 1016] and `COc1ccc2c(c1)C(=O)N(C[C@@]1(C#Cc3ccc4c(c3)sc(=N)n4C)NC(=O)NC1=O)C2` [Compound 1017] cannot be ordered by Ki: less than 5 nM for the first, less than 5 nM for the second.

`COc1ccc2c(c1)C(=O)N(C[C@@]1(C#Cc3cccnc3C#N)NC(=O)NC1=O)C2` [Compound 1018] and `COc1ccc2c(c1)C(=O)N(C[C@@]1(C#Cc3ccc(C#N)s3)NC(=O)NC1=O)C2` [Compound 1064] cannot be ordered by Ki: less than 5 nM for the first, less than 5 nM for the second.

`COc1ccc2c(c1)C(=O)N(C[C@@]1(C#Cc3ccc4c(c3)C(=O)NC4=O)NC(=O)NC1=O)C2` [Compound 1019] and `COc1ccc2c(c1)C(=O)N(C[C@@]1(C#Cc3cccc(O)c3)NC(=O)NC1=O)C2` [Compound 1040] cannot be ordered by Ki: less than 5 nM for the first, less than 5 nM for the second.

Compared with `COc1ccc2c(c1)C(=O)N(C[C@]1(C#Cc3ccc(SC(F)(F)F)cc3)NC(=O)NC1=O)C2` [Compound 1036], `COc1ccc2c(c1)C(=O)N(C[C@@]1(C#Cc3ccc(SC(F)(F)F)cc3)NC(=O)NC1=O)C2` [Compound 1038] is lower in Ki: greater than 100 nM for the first, less than 5 nM for the second. The second binds more tightly here.

`O=C1NC(=O)[C@@](C#Cc2ccc(F)cc2)(CN2Cc3ccc(F)cc3C2=O)N1` [Compound 1037] and `O=C1NC(=O)[C@@](C#Cc2cccc(F)c2)(CN2Cc3ccc(F)cc3C2=O)N1` [Compound 1041] cannot be ordered by Ki: less than 5 nM for the first, less than 5 nM for the second.

First: COc1ccc2c(c1)C(=O)N(C[C@@]1(C#Cc3ccc(S(=O)(=O)C(F)(F)F)cc3)NC(=O)NC1=O)C2 [Compound 1039]
Second: COc1ccc(C#C[C@]2(CN3Cc4ccc(OC)cc4C3=O)NC(=O)NC2=O)cc1 [Compound 1043]
The Ki of the first is higher: 5 to 25 nM for the first, less than 5 nM for the second.

Compared with `O=C1NC(=O)[C@@](C#Cc2ccc(F)cc2F)(CN2Cc3ccc(F)cc3C2=O)N1` [Compound 1042], `O=C1NC(=O)[C@](C#Cc2ccc(F)cc2F)(CN2Cc3ccc(F)cc3C2=O)N1` [Compound 1052] is higher in Ki: less than 5 nM for the first, 25 to 100 nM for the second. The first binds more tightly here.

`COc1ccc2c(c1)C(=O)N(C[C@@]1(C#Cc3cccc(C)c3)NC(=O)NC1=O)C2` [Compound 1044] and `COc1ccc2c(c1)C(=O)N(C[C@@]1(C#Cc3cccc(CO)c3)NC(=O)NC1=O)C2` [Compound 1048] cannot be ordered by Ki: less than 5 nM for the first, less than 5 nM for the second.

`COc1ccc2c(c1)C(=O)N(C[C@@]1(C#Cc3ccc(C#N)cc3)NC(=O)NC1=O)C2` [Compound 1045] and `CCOc1ccc(C#C[C@]2(CN3Cc4ccc(OC)cc4C3=O)NC(=O)NC2=O)cc1` [Compound 1050] cannot be ordered by Ki: less than 5 nM for the first, less than 5 nM for the second.

`CCOc1cccc(C#C[C@]2(CN3Cc4ccc(OC)cc4C3=O)NC(=O)NC2=O)c1` [Compound 1046] and `COCc1cccc(C#C[C@]2(CN3Cc4ccc(OC)cc4C3=O)NC(=O)NC2=O)c1` [Compound 1055] cannot be ordered by Ki: less than 5 nM for the first, less than 5 nM for the second.

First: COc1ccc2c(c1)C(=O)N(C[C@@]1(C#Cc3ccc(Cl)s3)NC(=O)NC1=O)C2 [Compound 1049]
Second: COc1ccc2c(c1)C(=O)N(C[C@]1(C#Cc3ccc(C#N)s3)NC(=O)NC1=O)C2 [Compound 1068]
The Ki of the first is lower: less than 5 nM for the first, greater than 100 nM for the second.

First: O=C1NC(=O)[C@](C#Cc2cccc(F)c2)(CN2Cc3ccc(F)cc3C2=O)N1 [Compound 1051]
Second: COc1ccc2c(c1)C(=O)N(C[C@@]1(C#Cc3cccc(COCC4CC4)c3)NC(=O)NC1=O)C2 [Compound 1059]
The Ki of the first is higher: 25 to 100 nM for the first, less than 5 nM for the second.

First: COc1ccc2c(c1)C(=O)N(C[C@@]1(C#Cc3ccc4oc(C)cc4c3)NC(=O)NC1=O)C2 [Compound 1053]
Second: COc1ccc2c(c1)C(=O)N(C[C@]1(C#Cc3ccc(C(C)N)cc3)NC(=O)NC1=O)C2 (stereo partly drawn) [Compound 1073]
The Ki of the first is lower: less than 5 nM for the first, greater than 100 nM for the second.

`COc1ccc2c(c1)C(=O)N(C[C@@]1(C#Cc3cc(Cl)ccc3OC)NC(=O)NC1=O)C2` [Compound 1054] and `COc1ccc2c(c1)C(=O)N(C[C@@]1(C#Cc3c(OC)ccc4c(C#N)cccc34)NC(=O)NC1=O)C2` [Compound 1056] cannot be ordered by Ki: less than 5 nM for the first, less than 5 nM for the second.

`COc1ccc2c(c1)C(=O)N(C[C@@]1(C#Cc3ccc(OC(C)C)cc3)NC(=O)NC1=O)C2` [Compound 1057] and `COc1ccc2c(c1)C(=O)N(C[C@@]1(C#Cc3ccc(OCC4CC4)cc3)NC(=O)NC1=O)C2` [Compound 1058] cannot be ordered by Ki: less than 5 nM for the first, less than 5 nM for the second.

`COc1ccc2c(c1)C(=O)N(C[C@@]1(C#Cc3ccc(C(C)=O)s3)NC(=O)NC1=O)C2` [Compound 1060] and `COc1ccc2c(c1)C(=O)N(C[C@@]1(C#Cc3ccc(C(C)O)s3)NC(=O)NC1=O)C2` (stereo partly drawn) [Compound 1061] cannot be ordered by Ki: less than 5 nM for the first, less than 5 nM for the second.

First: COc1ccc2c(c1)C(=O)N(C[C@@]1(C#Cc3ccc(C(=O)NC4CC4)cc3)NC(=O)NC1=O)C2 [Compound 1065]
Second: COc1ccc2c(c1)C(=O)N(C[C@]1(C#Cc3ccc(C(=O)NC4CC4)cc3)NC(=O)NC1=O)C2 [Compound 1067]
The Ki of the first is lower: less than 5 nM for the first, greater than 100 nM for the second. The first binds more tightly here.

First: COc1ccc2c(c1)C(=O)N(C[C@]1(C#Cc3cncc(O)c3)NC(=O)NC1=O)C2 [Compound 1066]
Second: COc1ccc2c(c1)C(=O)N(C[C@@]1(C#Cc3csc(CN)c3)NC(=O)NC1=O)C2 [Compound 1070]
The Ki of the first is higher: greater than 100 nM for the first, less than 5 nM for the second.

`COc1ccc2c(c1)C(=O)N(C[C@@]1(C#Cc3cc(Cl)c(Br)s3)NC(=O)NC1=O)C2` [Compound 1071] and `COc1ccc2c(c1)C(=O)N(C[C@@]1(C#Cc3ccc(CO)s3)NC(=O)NC1=O)C2` [Compound 1072] cannot be ordered by Ki: less than 5 nM for the first, less than 5 nM for the second.

same assay, conditions: rhTACEc 70 pM, 30 μM SPDL-3, 90 min pre-incubation at 25° C.; read-out: Ki (nM), TACE inhibitory activity

`COc1ccc2c(c1)C(=O)N(C[C@@]1(C#Cc3ccc4nc(N)[nH]c4c3)NC(=O)NC1=O)C2` [Compound 1009] gave a Ki of 1.33 nM.
